Assay results published in US6569902B2, “Nitrone inhibition of cancer development” (Oklahoma Medical Research Foundation, priority 2000, dated 2003).
Read-outs that look alike come from different tables or passages of the source.

Tests used:
rats fed the CDAA diet = conditions: cited from earlier work
[1] = system: livers of male Wistar rats fed the CDAA diet; test: Example 2: histological liver injury (fibrosis, fatty liver); format: in vivo, rat; conditions: high dose 0.090%, CDAA diet 16 weeks
Source text: (§1) Animal experiment. After acclimation, rats were divided equally into 22 groups consisting of 5 animals each. Animals in group 1 received the CDAA diet alone. […] Groups 5-7, 8-10, 11-13 and 14-16 received the CDAA diet containing the low, middle, and high doses of 4-OHPBN, 3-OHPBN, 2-OHPBN and 2-SPBN, respectively. Group 17 received the CSAA diet alone. […] All animals were sacrificed by exsanguination under light ether anesthesia 16 weeks after commencement, and the livers excised. Slices 5-mm-thick were taken from the left lateral, median and right lateral lobes of the livers, fixed in 10% neutrally-buffered formalin for 24 hours and then embedded in paraffin. Five serial 4-μm-thick sections were prepared from each fixed liver slice and used for histological and immunohistochemical assessment as described below. The remaining portions of the livers were immediately frozen under liquid nitrogen and stored at −80° C. until use.
(§2) Histological and immunohistochemical assessments. Histological assessment was performed using sections routinely stained with hematoxylin/eosin and Masson's trichrome procedures. Gradation of fibrosis was quantitatively evaluated in groups 1, 4, 7, 10, 13, 16 and 17 by calculating the percent area occupied by collagen fiber stained blue by Masson's trichrome method using an IPAP image analyzing system (Sumika Technoservice Corp., City of Osaka, Osaka, Japan). GST-P-positive lesions were visualized immunohistochemically. Lesions consisting of more than 6 cells were quantified using the IPAP system as described elsewhere (Kishida et al. 2000). The amount of apoptosis and the cellular proliferative activity were determined in groups 1, 4, 7, 10, 13, 16 and 17, using the double staining techniques by combination of the GST-P immunohistochemistry as above with the in situ terminal deoxynucleotidyl transferase-mediated dUTP-biotin nick end-labeling method (Gold et al. 1994) and the enhanced polymer one-step staining method for proliferating cell nuclear antigen (Tsutsumi et al. 1995), respectively. Numbers of apoptotic and proliferating hepatocytes among the 1000-5000 hepatocytes in GST-P-positive lesions and 5000 hepatocytes in surrounding tissue were counted under light microscopy to obtain percentages that are hereafter referred as apoptotic and proliferative indices, respectively.
(§3) Statistics. Inter-group differences in quantitative data for multiple groups were recognized to be significant, when p values smaller than 0.05 were obtained by the Dunnett multiple comparison test employed after one-way analysis of variance to determine the variation among the group means followed by the Bartlett's test to determine the homogeniety of variance.

[2] = system: hepatocytes of male Wistar rats fed the CDAA diet; test: Example 2: apoptotic and proliferative indices in GST-P-positive lesions and surrounding tissue; format: in vivo, rat; conditions: high dose 0.090%
Source text: as §1, §2, §3

[3] = system: livers of male Wistar rats fed the CDAA diet; test: Example 2: oxidative hepatocyte injuries (8-OHdG, TBARS); format: in vivo, rat; conditions: for nuclear DNA 8-OHdG content increased by CDAA diet feeding: all doses, CDAA diet 16 weeks
Source text: as §1
Determination of oxidative hepatocyte injuries. Levels of oxidative damage to the hepatocytes were determined on frozen liver samples. Oxidative damage to nuclear DNA was assessed as previously described, using the amount of 8-hydroxydeoxyguanosine (8-OHdG) to 10^6 deoxyguanosine (dG) ratio as a parameter (Nakae et al. 1995). Oxidative injury to extra-nuclear components was assessed as described elsewhere, by determining picomole malondialdehyde equivalent (MDA eq.) levels of 2-thiobarbituric acid-reacting substances (TBARS) per milligram protein (Nakae et al. 1990).
as §3

[4] = system: GST-P-positive lesions in livers of male Wistar rats fed the CDAA diet; test: Example 2: numbers and sizes of GST-P-positive liver lesions, CDAA diet for 16 weeks; format: in vivo, rat; conditions: for effect on the number or sizes of the GST-P-positive lesions: CDAA diet
Description: Animals. A total of 110 male Wistar rats were obtained at 5 weeks of age from Charles River Japan, Inc., Atsugi, Kanagawa, Japan. Experimentation began after a 1-week acclimation on a basal diet (CE-2 diet, Clea Japan, Meguro, Tokyo, Japan). Rats were housed 5 each in plastic cages with white flake bedding (Kansai Animal Corp., City of Kyoto, Kyoto, Japan) in a standard atmosphere (temperature, 25±3° C.; relative humidity, 55±8%; ventilation, 10-15/hour; and a 12-hour dark/light cycle). Free access to food and tap water was allowed throughout the acclimation and experimental periods.
Diets and chemicals. The CDAA diet and its control, a choline-supplemented, L-amino acid-defined (CSAA) diet (Nakae et al. 1992; and Nakae et al. 1990) were obtained from Dyets, Inc., Bethlehem, Pa. […] 2-Sulfoxy-PBN (2-SPBN) was purchased from Aldrich Chemical Co. (Milwaukee, Wis.).
as §1, §2, §3

[5] = system: rat liver microsome peroxidation; conditions: read-out: IC50, inhibition of rat liver microsome peroxidation; cited from earlier work

For `CCCCCCCCCCCCCCCCCCOC1=C(O)C([C@@H](O)CO)OC1=O` (stereo partly shown) [CV3611], the “lowering of nodule size” value (rats fed the CDAA diet; 0.05% level) is listed as 44%.

For `CC(C)(C)[N+]([O-])=Cc1ccc(O)cc1` [4-OHPBN, 4-hydroxyphenyl N-tert-butylnitrone], the “grade of fibrosis versus group 1” value [1] was “significantly lower”, the “apoptotic index in the surrounding tissue, % of the group 1 value” [2] was “about 40%” and the “proliferative index in the lesions, % of the group 1 value” [2] was “approximately 31%”. The “proliferative index in the surrounding tissue, % of the group 1 value” [2] was “about 49%”, the “nuclear DNA 8-OHdG content increased by CDAA diet feeding” value (from here on “nuclear DNA 8-OHdG content increased”) [3] was “significantly inhibited” and the “TBARS level enhanced by CDAA feeding” value ([3]; all three doses) was “significantly exerted an effect”. The “sizes of GST-P-positive lesions, % of the group 1 value” ([4]; high dose 0.090% in CDAA diet) was 18%, the “sizes of GST-P-positive lesions, % of the group 1 value” ([4]; low dose 0.009% in CDAA diet) was 24% and the “sizes of GST-P-positive lesions, % of the group 1 value” ([4]; middle dose 0.045% in CDAA diet) was 19%.

For `Cc1cc(C(C)(C)C)c(O)c(C(C)(C)C)c1` [BHT], the IC50 [5] is listed as 6 µM.

For `O=C(CBr)c1ccc(Br)cc1` [BPB, p-bromophenocybromide], the “activity in suppressing the size of the nodules” value (rats fed the CDAA diet; rat, in vivo) is given as “little activity”.

In the case of `CC(=O)Oc1ccccc1C(=O)O` [Acetylsalicylic acid], the “effect on nodule size, nodule number and 8-OHdG content” value (rats fed the CDAA diet; not nearly as potent as PBN) is listed as “some effect”.

In the case of `CC(Cc1ccc(O)c(O)c1)C(C)Cc1ccc(O)c(O)c1` (stereo not shown) [NGDA, nordihydroguaiaric acid], the “lowering of nodule size” value (rats fed the CDAA diet; 0.1% level) is listed as 39%.

For `Cc1c(C)c2c(c(C)c1O)CC[C@@](C)(CCC[C@H](C)CCC[C@H](C)CCCC(C)C)O2` [Alpha tocopherol], the “effect on any of the parameters” value (rats fed the CDAA diet; rat, in vivo) is given as “very little effect”.

For `Cc1c(C)c2c(c(C)c1O)CCC(C)(C(=O)O)O2` (stereo not shown) [Trolox], the IC50 [5] is given as 40 µM and the “effect on any of the parameters” value (rats fed the CDAA diet; rat, in vivo) is given as “very little effect”.

In the case of `CC(C)(C)[N+]([O-])=Cc1ccccc1O` [2-OHPBN, 2-hydroxyphenyl N-tert-butylnitone], the “grade of fibrosis versus group 1” value [1] is reported as “no affect”, the “effect on apoptotic indices” value [2] is reported as “Neither 2-OHPBN nor 2-SPBN altered” and the “nuclear DNA 8-OHdG content increased” value [3] is reported as “Neither 2-OHPBN nor 2-SPBN decreased”. For the same compound, the “TBARS level enhanced by CDAA feeding” value ([3]; all three doses) was “Neither 2-OHPBN nor 2-SPBN affected” and the “effect on the number or sizes of the GST-P-positive lesions” value [4] was “Neither 2-OHPBN nor 2-SPBN had any affect”.

For `CC(C)(C)[N+]([O-])=Cc1ccccc1S(=O)(=O)O` [2-SPBN, 2-sulfoxyphenyl N-tert-butylnitone], the “grade of fibrosis versus group 1” value [1] was “no affect”, the “effect on apoptotic indices” value [2] was “Neither 2-OHPBN nor 2-SPBN altered” and the “nuclear DNA 8-OHdG content increased” value [3] was “Neither 2-OHPBN nor 2-SPBN decreased”. For the same compound, the “TBARS level enhanced by CDAA feeding” value ([3]; all three doses) was “Neither 2-OHPBN nor 2-SPBN affected” and the “effect on the number or sizes of the GST-P-positive lesions” value [4] was “Neither 2-OHPBN nor 2-SPBN had any affect”.

In the case of `c1ccc(Nc2ccc(Nc3ccccc3)cc2)cc1` [N,N′-diphenyl-p-phenylenediamine], the “effect on sizes and numbers of GST-P-positive lesions” value (rats fed the CDAA diet; livers of rats fed the CDAA diet (Nakae et al. 1994)) is given as “reduces the sizes of GST-P-positive lesions without affecting their numbers”.

In the case of `CCCCCCCCCCCCCCCCCCOC1=C(O)[C@@H]([C@@H](O)CO)OC1=O` [2-O-octadecylascorbic acid], the “inhibition of rat hepatocarcinogenesis” value (rats fed the CDAA diet; chronic feeding in the CDAA diet (Mizumoto et al. 1994)) is listed as “inhibits rat hepatocarcinogenesis by chronic feeding in the CDAA diet greater than its hydrophilic parent, L-ascorbic acid”.

For `CC(C)(C)[N+]([O-])=Cc1cccc(O)c1` [3-OHPBN, 3-hydroxyphenyl N-tert-butylnitrone], the “grade of fibrosis versus group 1” value [1] was “significantly lower”, the “apoptotic index in the surrounding tissue, % of the group 1 value” [2] was “about 40%” and the “nuclear DNA 8-OHdG content increased” value [3] was “significantly inhibited”. The “TBARS level enhanced by CDAA feeding” value ([3]; high dose 0.090% only) was “significantly inhibited” and the “sizes of GST-P-positive lesions, % of the group 1 value” ([4]; high dose 0.090% in CDAA diet) was 9%.
